Measured values reported in patent US20130267594A1, “PROLYL HYDROXYLASE INHIBITORS AS RADIATION MITIGATORS AND RADIATION PROTECTORS” (priority 2010, published 2013).

Test system: HeLa cells
Experiment: Control experiment: toxicity of DMOG to the cells over the time course
Format: cell-based
Conditions: control experiments to FIG. 2

**Q.** `COC(=O)CNC(=O)C(=O)OC` [DMOG, dimethyloxalylglycine] was tested. Which “toxicity over the time course of the experiment” value did it give?
**A.** did not exhibit significant toxicity
